Patent US20070225344A1, “Sulfonamide derivatives to treat infection with hepatitis C virus” (priority 2006, published 2007)

Biological target: T1, HCV RdRp NS5B d21BK (BK strain, 1b subtype) (Hepatitis C virus genotype 1b, UniProt P26663)
T1 construct: NS5B from the BK strain (1b subtype) is expressed in E. coli as a protein in which the 21 C-terminal amino acids are replaced; made in house; host or cells: E. coli
Assay: HCV polymerase (NS5B) RNA-dependent RNA polymerase inhibition, 33P-GTP filter assay
Assay type: biochemical
Details: in vitro; NS5B BK strain (1b subtype), 24 nM enzyme, 2 h at room temperature; read-out: HCV Polymerase Median IC50
Description: The ability of the compounds of the present invention to inhibit hepatitis C polymerase was established by the following experimental procedure:
NS5B from the BK strain (1b subtype) is expressed in E. coli as a protein in which the 21 C-terminal amino acids are replaced with a short linker and a hexahistidine tag (GSHHHHHH). The purified protein is mixed with radioactive nucleotides and allowed to replicate a heteropolymeric RNA substrate, primed by an endogenous short hairpin, resulting in an approximately 760 nt product. The radioactive product is captured on a filter and quantitated after removal of the unincorporated nucleotides.
(1) Compounds 10 μl at 10 μg/ml in 15% DMSO
Add 20 μl enzyme mix into each well of the assay plate. Incubate compound and enzyme at room temperature for 15 minutes.
(3) Template Mix—Prepare Ahead.
Spin down a tube of RNA (5 μg/tube stored in 75% ethanol and 0.3 M sodium acetate) in a microcentrifuge for 20 min. at 4° C. One tube is enough for 1 to 1½ plates. Remove as much ethanol from the tube as possible by inverting the tube. Be gentle, pellet RNA may not adhere to the tube. Vacuum dry the RNA. Resuspend the RNA by adding 1 ml of DEPC water, close the cap of the tube tightly. To dissolve RNA, incubate RNA solution on ice for ˜60 min. and gently vortex. Spin briefly to ensure all RNA solution is down to the bottom of the tube before opening cap. Gently transfer RNA solution into a 5 ml or larger tube. Add another 3 ml of DEPC water (total 4 ml of volume).
Add the following volumes of reagents.
Add 20 μl template mix per reaction (i.e. 20 ng of POF per reaction or ˜3 nM)
(4) Incubate reaction at room temperature (22-25° C.) for 2 hours.
(5) Stop reaction by adding 50 μl of 170 mM EDTA.
Final concentration of EDTA is 85 mM.
(6) Prewet filters of Millipore Multiscreen filter plate by adding 200 μl of 0.5 M sodium phosphate buffer, pH 7.0 into each well. Let stand at room temperature for 2-3 min.
(7) Place the Multiscreen filter plate onto a Millipore Manifold and turn on vacuum to allow buffer to flow through. Turn off vacuum. Transfer 80 μl of the reaction product into each well of the filter plate. Let stand for 2-3 min. Turn on vacuum to filter reaction product.
(8) Turn off vacuum. Add 200 μl of 0.5 M sodium phosphate buffer, pH 7.0 into each well to wash filter. Turn on vacuum.
Repeat step (8) three more times.
(9) Remove polypropylene bottom. Spot dry filter at the bottom with paper towel. Air dry filter plate on a bench for 1 hr. Add 40 μl Super Mix scintillant. Seal top of the plate with a tape. Place plate into a Packard carrier or MicroBeta carrier.
(10) Count plate using a Packard Topcount or MicroBeta counter. Program 10 for ^33P in Top count or ^33P program in micro-beta.
Percent inhibition is calculated after background subtraction as a percent reduction of activity relative to the positive control (average value of the plate excluding the negative controls).

T1 sequence (P26663 2420-2997, looked up, natural form): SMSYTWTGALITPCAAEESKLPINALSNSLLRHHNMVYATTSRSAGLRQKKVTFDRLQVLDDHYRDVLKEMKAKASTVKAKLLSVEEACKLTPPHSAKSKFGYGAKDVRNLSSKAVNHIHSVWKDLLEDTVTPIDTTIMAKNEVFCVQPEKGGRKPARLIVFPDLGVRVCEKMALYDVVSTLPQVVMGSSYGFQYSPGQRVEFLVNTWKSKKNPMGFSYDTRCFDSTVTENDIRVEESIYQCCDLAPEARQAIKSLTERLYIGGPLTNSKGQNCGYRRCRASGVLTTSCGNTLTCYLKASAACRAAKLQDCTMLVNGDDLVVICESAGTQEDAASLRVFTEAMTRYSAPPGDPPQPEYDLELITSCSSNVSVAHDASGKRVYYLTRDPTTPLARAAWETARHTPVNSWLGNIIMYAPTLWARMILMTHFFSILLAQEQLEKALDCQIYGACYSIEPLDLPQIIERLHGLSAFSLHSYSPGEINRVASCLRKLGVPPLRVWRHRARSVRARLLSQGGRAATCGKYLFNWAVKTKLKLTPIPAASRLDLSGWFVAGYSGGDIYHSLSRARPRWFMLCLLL

SMILES	IC50 [µM]
O=S(=O)(c1cc(Cl)cc(Cl)c1O)N1CCC[C@H]1c1nn[nH]n1 [Example 1, 2,4-dichloro-6-{[(2S)-2-(2H-tetrazol-5-yl)pyrrolidin-1-yl]sulfonyl}phenol]	0.56
N#C[C@@H]1CCCN1S(=O)(=O)c1cc(Cl)cc(Cl)c1O [Example 2, (2S)-1-[(3,5-dichloro-2-hydroxyphenyl)sulfonyl]pyrrolidine-2-carbonitrile]	1.04
O=C(O)[C@@H]1C[C@@H](O)CN1S(=O)(=O)c1cc(Cl)c(Cl)c(Cl)c1O [Example 3, (4R)-4-hydroxy-1-[(3,4,5-trichloro-2-hydroxyphenyl)sulfonyl]-L-proline]	0.07
O=C(O)[C@@H]1CCCN1S(=O)(=O)c1cc(Cl)c(Cl)c(Cl)c1O [Example 4, 1-[(3,4,5-trichloro-2-hydroxyphenyl)sulfonyl]-L-proline]	0.08
O=C(O)[C@@H]1CCCN1S(=O)(=O)c1cc(Cl)cc(Br)c1O [Example 5, 1-[(3-bromo-5-chloro-2-hydroxyphenyl)sulfonyl]-L-proline]	0.26
O=C(O)[C@@H]1C[C@@H](O)CN1S(=O)(=O)c1cc(Br)cc(Br)c1O [Example 6, (4R)-1-[(3,5-dibromo-2-hydroxyphenyl)sulfonyl]-4-hydroxy-L-proline]	0.46
O=C(O)[C@@H]1C[C@@H](O)CN1S(=O)(=O)c1cc(Cl)cc(Br)c1O [Example 7, (4R)-1-[(3-bromo-5-chloro-2-hydroxyphenyl)sulfonyl]-4-hydroxy-L-proline]	0.47
O=C(O)[C@@H]1CCCN1S(=O)(=O)c1cc(Br)cc(Cl)c1O [Example 8, 1-[(5-bromo-3-chloro-2-hydroxyphenyl)sulfonyl]-L-proline]	0.4
O=C(O)[C@@H]1CCCN1S(=O)(=O)c1cc(Br)cc(Br)c1O [Example 9, 1-[(3,5-dibromo-2-hydroxyphenyl)sulfonyl]-L-proline]	0.56
O=C(O)[C@@H]1C[C@@H](O)CN1S(=O)(=O)c1cc(Cl)cc(Cl)c1O [Example 10, (4R)-1-[(3,5-dichloro-2-hydroxyphenyl)sulfonyl]-4-hydroxy-L-proline]	0.67
CO[C@@H]1C[C@@H](C(=O)O)N(S(=O)(=O)c2cc(Cl)cc(Cl)c2O)C1 [Example 12, (4R)-1-[(3,5-dichloro-2-hydroxyphenyl)sulfonyl]-4-methoxy-L-proline]	0.91
O=C(O)[C@H]1CCCN1S(=O)(=O)c1cc(Cl)c(Cl)c(Cl)c1O [Example 13, 1-[(3,4,5-trichloro-2-hydroxyphenyl)sulfonyl]-D-proline]	1.17
O=C(O)[C@@H]1CCCN1S(=O)(=O)c1cc(F)cc(Cl)c1O [Example 14, 1-[(3-chloro-5-fluoro-2-hydroxyphenyl)sulfonyl]-L-proline]	2.05
O=C(O)[C@H]1C[C@H](O)CN1S(=O)(=O)c1cc(Cl)c(Cl)c(Cl)c1O [Example 15, (4S)-4-hydroxy-1-[(3,4,5-trichloro-2-hydroxyphenyl)sulfonyl]-D-proline]	1.22
CC(=O)[C@@H]1CCCN1S(=O)(=O)c1cc(Cl)cc(Cl)c1O [Example 16, 1-{(2S)-1-[(3,5-dichloro-2-hydroxyphenyl)sulfonyl]pyrrolidin-2-yl}ethanone]	2.62
Cc1cc(N)c(S(=O)(=O)N2CCC[C@@H]2C(=O)O)cc1Cl [Example 17, 1-[(2-amino-5-chloro-4-methylphenyl)sulfonyl]-D-proline]	4.7
O=C(O)[C@@H]1C[C@@H](O)CN1S(=O)(=O)c1cc(F)cc(Cl)c1O [Example 18, (4R)-1-[(3-chloro-5-fluoro-2-hydroxyphenyl)sulfonyl]-4-hydroxy-L-proline]	3.28
Cc1cc(N)c(S(=O)(=O)N2C[C@@H](O)C[C@@H]2C(=O)O)cc1Cl [Example 19, (4S)-1-[(2-amino-5-chloro-4-methylphenyl)sulfonyl]-4-hydroxy-D-proline]	4.05
Cc1cc(N)c(S(=O)(=O)N2CCC[C@H]2C(=O)O)cc1Cl [Example 20, 1-[(2-amino-5-chloro-4-methylphenyl)sulfonyl]-L-proline]	5.95

SMILES	IC50 [µM]
O=S(=O)(c1cc(Cl)cc(Cl)c1O)N1CCC[C@H]1CO [Example 21, 2,4-dichloro-6-{[(2S)-2-(hydroxymethyl)pyrrolidin-1-yl]sulfonyl}phenol]	6.1
O=C(O)[C@H]1CCCN1S(=O)(=O)c1cc(Br)cc(Cl)c1O [Example 22, 1-[(5-bromo-3-chloro-2-hydroxyphenyl)sulfonyl]-D-proline]	4.81
O=S(=O)(c1cc(Cl)cc(Cl)c1O)N1CCCC1 [Example 23, 2,4-dichloro-6-(pyrrolidin-1-ylsulfonyl)phenol]	4.85
Cc1cc(S(=O)(=O)N2C[C@@H](O)C[C@@H]2C(=O)O)c(N)cc1Cl [Example 24, (4S)-1-[(2-amino-4-chloro-5-methylphenyl)sulfonyl]-4-hydroxy-D-proline]	5.1
Cc1cc(N)c(S(=O)(=O)N2C[C@H](O)C[C@H]2C(=O)O)cc1Cl [Example 25, (4R)1-[(2-amino-5-chloro-4-methylphenyl)sulfonyl]-4-hydroxy-L-proline]	7.65
Cc1cc(NC(=O)c2cccs2)c(S(=O)(=O)N2CCC[C@H]2C(=O)O)cc1Cl [Example 26, 1-({5-chloro-4-methyl-2-[(2-thienylcarbonyl)amino]phenyl}sulfonyl)-L-proline]	6.87
O=C(O)[C@H]1CCCN1S(=O)(=O)c1cc(Br)cc(Br)c1O [Example 27, 1-[(3,5-dibromo-2-hydroxyphenyl)sulfonyl]-D-proline]	7
Cc1cc(S(=O)(=O)N2C[C@H](O)C[C@H]2C(=O)O)c(N)cc1Cl [Example 28, (4R)-1-[(2-amino-4-chloro-5-methylphenyl)sulfonyl]-4-hydroxy-L-proline]	10
CCC(=O)[C@@H]1CCCN1S(=O)(=O)c1cc(Cl)cc(Cl)c1O [Example 29, 1-{(2S)-1-[(3,5-dichloro-2-hydroxyphenyl)sulfonyl]pyrrolidin-2-yl}propan-1-one]	7.29
O=C(c1ccccc1)[C@@H]1CCCN1S(=O)(=O)c1cc(Cl)cc(Cl)c1O [Example 30, {(2S)-1-[(3,5-dichloro-2-hydroxyphenyl)sulfonyl]pyrrolidin-2-yl}(phenyl)methanone]	7.52
O=C(O)[C@H]1CCCN1S(=O)(=O)c1cc(Cl)cc(Cl)c1O [Example 31, 1-[(3,5-dichloro-2-hydroxyphenyl)sulfonyl]-D-proline]	6.45
O=C(O)[C@@H]1CCCN1S(=O)(=O)c1c(Cl)cc(Cl)cc1Cl [Example 32, 1-[(2,4,6-trichlorophenyl)sulfonyl]-L-proline]	9.6
Cc1cc(NC(=O)C2CC2)c(S(=O)(=O)N2CCC[C@H]2C(=O)O)cc1Cl [Example 33, 1-({5-chloro-2-[(cyclopropylcarbonyl)amino]-4-methylphenyl}sulfonyl)-L-proline]	8.68
Cc1cc(NC(=O)c2ccccc2)c(S(=O)(=O)N2CCC[C@H]2C(=O)O)cc1Cl [Example 34, 1-{[2-(benzoylamino)-5-chloro-4-methylphenyl]sulfonyl}-L-proline]	10.1
Cc1ccc(S(=O)(=O)N2CCC[C@H]2C(=O)O)cc1Cl [Example 35, 1-[(3-chloro-4-methylphenyl)sulfonyl]-L-proline]	10.2
O=C(O)[C@@H]1CCCN1S(=O)(=O)c1cc(Cl)c(Cl)cc1Cl [Example 36, 1-[(2,4,5-trichlorophenyl)sulfonyl]-L-proline]	21.9
O=C(O)[C@@H]1CCCCN1S(=O)(=O)c1cc(Cl)c(Cl)c(Cl)c1O [Example 37, (2S)-1-[(3,4,5-trichloro-2-hydroxyphenyl)sulfonyl]piperidine-2-carboxylic acid]	0.08
O=C(O)[C@H]1CCCCN1S(=O)(=O)c1cc(Cl)c(Cl)c(Cl)c1O [Example 38, (2R)-1-[(3,4,5-trichloro-2-hydroxyphenyl)sulfonyl]piperidine-2-carboxylic acid]	0.38
